Patent EP3290412A1, “HIV-1 NUCLEOCAPSID INHIBITORS” (Università degli Studi di Siena, priority 2016, dated 2018)

Legend:
[1] = target: T1, full length (1-55) HIV-1 NCp7 (Human immunodeficiency virus type 1 group M subtype B, UniProt P12493); test: Electromobility Shift Assay (EMSA), competition for ssDNA binding; details: NCp7 300 nM, M13mp18 ssDNA; positive = >25% inhibition at 100µM
T1 construct: recombinant full length (1-55) HIV-1 NCp7 proteins; made in house
In short: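 Recombinant NL4-3 NCp7 (300 nM in the pre-mix) was combined with compound in 20 mM Tris-HCl pH 7.4, 2 mM MgCl2, 100 mM NaCl, 1 mM DTT, then M13mp18 ssDNA was added for 25 min at 37 °C. Complexes were run on 1% agarose/0.5x TBE and stained with SybrGold. IC50 is the concentration at which bound ssDNA migrated 50% of the bound–unbound distance (triplicate).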

HeLa cells = test: HeLa Proliferation assay (CellTiter Glo); format: cell-based; details: 72 hours
In short: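 HeLa cells in phenol red-free DMEM + 10% FBS plated at 2000 cells/well, recovered 4 h, then exposed to compounds for 72 h at 37 °C, 5% CO2. Viability read by CellTiter Glo luminescence.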

[2] = test system: Peripheral blood mononuclear cells (PBMC); format: cell-based; details: human, 7 days
In short: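 Healthy-donor PBMC stimulated 2 days with 5 µg/mL PHA, then seeded at 1x10^5 cells/well in medium with 20 IU/mL IL-2 and exposed to compound for 7 days. Viability measured by MTS (4 h, OD 490 nm). TD50 interpolated from dose versus percent mortality relative to untreated cells.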

[3] = test system: HIV-1 reference strain NL4-3; test: MonoCycle assay (TZM-bl cells); format: cell-based; details: Human immunodeficiency virus 1, NL43, TZM-bl, 48 h, read-out: Mono Cycle IC50 nM
Protocol: MonoCycle assay is a cell based assay allowing the evaluation of antiviral activity of HIV-1 inhibitors targeting the early steps of HIV-1 life cycle such as entry, uncoating of viral particles, reverse transcription and integration. The assay consists in the infection of TZM-bl cells (20,000/well) with the HIV-1 reference strain NL4-3 in presence of serial five-fold dilutions of the investigational inhibitors. After 48 hours, cells were lysed adding 40 µl of Glo Lysis Buffer (Promega) to each well for 5 minutes, then 40 µl of Brighy-Glo Luciferase Reagent (Promega) were added to each well for relative luminescence units (RLU) counting using Glo-Max Multi Detection System (Promega). RLU values from each well were elaborated using the GraphPad v5.0 software to calculate the IC50 of each compound.

## C[C@H](NC(=O)c1nc(-c2ccc(N)cn2)nc(O)c1O)C1CCCCC1 [Compound 81, (S)-2-(5-aminopyridin-2-yl)-N-(1-cyclohexylethyl)-5,6-dihydroxypyrimidine-4-carboxamide]
[1]
  EMSA screening results: Positive (A compound showing >25% inhibition when tested at 100µM concentration is considered as "positive")
HeLa cells
  Proliferation assay HELA TD50: 0.5425 µM
[2]
  Proliferation assay PBMC TD50: 1.4 µM
[3]
  IC50: 2290 nM

## C[C@@H](NC(=O)c1nc(-c2ccc3ccccc3n2)nc(O)c1O)C1CCCCC1 [Compound 22, (R)-N-(1-cyclohexylethyl)-5,6-dihydroxy-2-(quinolin-2-yl)pyrimidine-4-carboxamide]
[1]
  EMSA screening results: Positive (A compound showing >25% inhibition when tested at 100µM concentration is considered as "positive")
HeLa cells
  Proliferation assay HELA TD50: 2.8446 µM
[2]
  Proliferation assay PBMC TD50: 8.05 µM
[3]
  IC50: 100000 nM

## CC1CCCCC1NC(=O)c1nc(-c2ccccn2)nc(O)c1O (centres unmarked) [Compound 59, 5,6-dihydroxy-N-(2-methylcyclohexyl)-2-(pyridin-2-yl)pyrimidine-4-carboxamide]
[1]
  EMSA screening results: Positive (A compound showing >25% inhibition when tested at 100µM concentration is considered as "positive")
HeLa cells
  Proliferation assay HELA TD50: 0.6946 µM
[2]
  Proliferation assay PBMC TD50: 2.18 µM
[3]
  IC50: > 50000 nM

## CN1CCCC(CNC(=O)c2nc(-c3ccccn3)nc(O)c2O)C1 (centres unmarked) [Compound 7, 5,6-dihydroxy-N-((1-methylpiperidin-3 - yl)methyl)-2-(pyridin-2-yl)pyrimidine-4-carboxamide]
[1]
  EMSA screening results: Positive (A compound showing >25% inhibition when tested at 100µM concentration is considered as "positive")
HeLa cells
  Proliferation assay HELA TD50: >50 µM
[2]
  Proliferation assay PBMC TD50: >50 µM
[3]
  IC50: > 50000 nM

## CC(NC(=O)c1nc(-c2ccccn2)nc(O)c1O)C1CCCC1 (centres unmarked) [Compound 65, N-(1-cyclopentylethyl)-5,6-dihydroxy-2-(pyridin-2-yl)pyrimidine-4-carboxamide]
[1]
  EMSA screening results: Positive (A compound showing >25% inhibition when tested at 100µM concentration is considered as "positive")
HeLa cells
  Proliferation assay HELA TD50: 0.8839 µM
[2]
  Proliferation assay PBMC TD50: 3.1 µM
[3]
  IC50: > 50000 nM

## COc1ccnc(-c2nc(O)c(O)c(C(=O)N[C@@H](C)C3CCCCC3)n2)c1 [Compound 69, N-[(1S)-1-cyclohexylethyl]-2-(4-methoxypyridin-2-yl)-5,6-bis(oxidanyl)pyrimidine-4-carboxamide]
[1]
  EMSA screening results: Positive (A compound showing >25% inhibition when tested at 100µM concentration is considered as "positive")
HeLa cells
  Proliferation assay HELA TD50: 3.8999 µM
[2]
  Proliferation assay PBMC TD50: 7.11 µM
[3]
  IC50: > 50000 nM

## C[C@@H](NC(=O)c1nc(-c2cc3ccccc3cn2)nc(O)c1O)C1CCCCC1 [Compound 25, (R)-N-(1-cyclohexylethyl)-5,6-dihydroxy-2-(isoquinolin-3-yl)pyrimidine-4-carboxamide]
[1]
  EMSA screening results: Positive (A compound showing >25% inhibition when tested at 100µM concentration is considered as "positive")
HeLa cells
  Proliferation assay HELA TD50: 1.3934 µM
[2]
  Proliferation assay PBMC TD50: 1.75 µM
[3]
  IC50: 64000 nM

## C[C@@H](NC(=O)c1nc(-c2cccc(N)n2)nc(O)c1O)C1CCCCC1 [Compound 45, (R)-2-(6-aminopyridin-2-yl)-N-(1-cyclohexylethyl)-5,6-dihydroxypyrimidine-4-carboxamide]
[1]
  EMSA screening results: Positive (A compound showing >25% inhibition when tested at 100µM concentration is considered as "positive")
HeLa cells
  Proliferation assay HELA TD50: 3.2272 µM
[2]
  Proliferation assay PBMC TD50: 3.36 µM
[3]
  IC50: > 50000 nM

## Cc1cccnc1-c1nc(O)c(O)c(C(=O)N[C@H](C)C2CCCCC2)n1 [Compound 23, (R)-N-(1-cyclohexylethyl)-5,6-dihydroxy-2-(3-methylpyridin-2-yl)pyrimidine-4-carboxamide]
[1]
  EMSA screening results: Positive (A compound showing >25% inhibition when tested at 100µM concentration is considered as "positive")
HeLa cells
  Proliferation assay HELA TD50: 2.3339 µM
[2]
  Proliferation assay PBMC TD50: 8.9 µM
  TD50: 8.9 µM
[3]
  IC50: 88500 nM

## CC(OC(=O)c1nc(-c2ccccn2)nc(O)c1O)C1CCCCC1 (centres unmarked) [Compound 17, 1-cyclohexylethyl 5,6-dihydroxy-2-(pyridin-2-yl)pyrimidine-4-carboxylate]
[1]
  EMSA screening results: Negative
HeLa cells
  Proliferation assay HELA TD50: >50 µM
[2]
  Proliferation assay PBMC TD50: 5.5 µM
[3]
  IC50: > 50000 nM

## C[C@@H](NC(=O)c1nc(-c2ncccc2Cl)nc(O)c1O)C1CCCCC1 [Compound 33, (R)-2-(3-chloropyridin-2-yl)-N-(1-cyclohexylethyl)-5,6-dihydroxypyrimidine-4-carboxamide]
[1]
  EMSA screening results: Positive (A compound showing >25% inhibition when tested at 100µM concentration is considered as "positive")
HeLa cells
  Proliferation assay HELA TD50: 6.8148 µM
[2]
  Proliferation assay PBMC TD50: 3.4 µM
[3]
  IC50: > 50000 nM

## C[C@H](NC(=O)c1nc(-c2cc(Cl)ccn2)nc(O)c1O)C1CCCCC1 [Compound 78, (S)-2-(4-chloropyridin-2-yl)-N-(1-cyclohexylethyl)-5,6-dihydroxypyrimidine-4-carboxamide]
[1]
  EMSA screening results: Positive (A compound showing >25% inhibition when tested at 100µM concentration is considered as "positive")
HeLa cells
  Proliferation assay HELA TD50: 2.3576 µM
[2]
  Proliferation assay PBMC TD50: 1.9 µM
[3]
  IC50: 8740 nM

## CC(NC(=O)c1nc(-c2cc(Cl)ccn2)nc(O)c1O)C1CCC(F)(F)CC1 (centres unmarked) [Compound 87, 2-(4-chloropyridin-2-yl)-N-(1-(4,4-difluorocyclohexyl)ethyl)-5,6-dihydroxypyrimidine-4-carboxamide]
[1]
  EMSA screening results: Negative
HeLa cells
  Proliferation assay HELA TD50: 6.158 µM
[2]
  Proliferation assay PBMC TD50: 3.22 µM
[3]
  IC50: > 50000 nM

## O=C(NCCCC1CCCCC1)c1nc(-c2ccccn2)nc(O)c1O [Compound 8, N-(3-cyclohexylpropyl)-5,6-dihydroxy-2-(pyridin-2-yl)pyrimidine-4-carboxamide]
[1]
  EMSA screening results: Positive (A compound showing >25% inhibition when tested at 100µM concentration is considered as "positive")
HeLa cells
  Proliferation assay HELA TD50: 4.8472 µM
[2]
  Proliferation assay PBMC TD50: 2 µM
[3]
  IC50: 4540 nM

## C[C@@H](NC(=O)c1nc(-c2cc(Cl)ccn2)nc(O)c1O)C1CCCCC1 [Compound 26, (R)-2-(4-chloropyridin-2-yl)-N-(1-cyclohexylethyl)-5,6-dihydroxypyrimidine-4-carboxamide]
[1]
  EMSA screening results: Positive (A compound showing >25% inhibition when tested at 100µM concentration is considered as "positive")
HeLa cells
  Proliferation assay HELA TD50: 3.1977 µM
[2]
  Proliferation assay PBMC TD50: 2.49 µM
[3]
  IC50: 17600 nM

## O=C(NCCC1CCCCC1)c1nc(-c2ccccn2)nc(O)c1O [Compound 6, N-(2-cyclohexylethyl)-5,6-dihydroxy-2-(pyridin-2-yl)pyrimidine-4-carboxamide]
[1]
  EMSA screening results: Positive (A compound showing >25% inhibition when tested at 100µM concentration is considered as "positive")
HeLa cells
  Proliferation assay HELA TD50: 4.2362 µM
[2]
  Proliferation assay PBMC TD50: 10.48 µM
[3]
  IC50: 4300 nM
